The target in assay [1] is T1, μ-opioid receptor (Homo sapiens (Human), UniProt P35372). Description: μ-opioid receptor radioligand dose-displacement binding assay (HEK-293 cells).
Assay [2] addresses T2, κ-opioid receptor (Homo sapiens (Human), UniProt P41145). The assay is described as follows: κ-opioid receptor [35S]GTPγS functional assay (HEK-293 cells). It is filed as biochemical. Particulars: for Emax: HEK-293 cells, relative to U69,593. How it is done:
Functional [^35S]GTPγS binding assays were conducted as follows. κ opioid receptor membrane solution was prepared by sequentially adding final concentrations of 0.026 μg/μl κ membrane protein (in-house), 10 μg/mL saponin, 3 μM GDP and 0.20 nM [^35S]GTPγS to binding buffer (100 mM NaCl, 10 mM MgCl2, 20 mM HEPES, pH 7.4) on ice. The prepared membrane solution (190 μl/well) was transferred to 96-shallow well polypropylene plates containing 10 μl of 20× concentrated stock solutions of agonist prepared in DMSO. Plates were incubated for 30 min at a temperature of about 25° C. with shaking. Reactions were terminated by rapid filtration onto 96-well Unifilter GF/B filter plates (Perkin Elmer, Shelton, Conn.) using a 96-well tissue harvester (Packard) and followed by three filtration washes with 200 μl ice-cold binding buffer (10 mM NaH2PO4, 10 mM Na2HPO4, pH 7.4). Filter plates were subsequently dried at 50° C. for 2-3 hours. Fifty μl/well scintillation cocktail (Perkin Elmer, Shelton, Conn.) was added and plates were counted in a Packard Top-Count for 1 min/well.
κ GTP EC50 is the concentration of a compound providing 50% of the maximal response for the compound at a κ receptor.
κ GTP Emax (%) is the maximal effect elicited by a compound relative to the effect elicited by U69,593.
In TABLE 4, activity response of certain Compounds of the Invention to the μ- and κ-opioid receptors was determined as described above for functional assays using HEK-293 cells.
Background: GTPγS resists hydrolysis and so accumulates on activated G proteins.

The target in assay [3] is T1, μ-opioid receptor. Description: μ-opioid receptor [35S]GTPγS functional assay (HEK-293 cells). In kind it is biochemical. Particulars: for Emax: HEK-293 cells, relative to DAMGO.
The target in assay [4] is recombinant human kappa opioid receptor (κ) (Homo sapiens (Human), UniProt P41145). Description: κ-opioid receptor radioligand dose-displacement binding assay (HEK-293 cells).
The target of assay [5] is T2, κ-opioid receptor. Description: κ-opioid receptor functional assay (U-2 OS cells). In kind it is biochemical. The conditions noted are these: for Emax: U-2 OS cells, relative to U69,593.
In assay [6] the target is T1, μ-opioid receptor. The assay is described as follows: μ-opioid receptor functional assay (U-2 OS cells). In kind it is biochemical. Particulars: for Emax: U-2 OS cells, relative to DAMGO.

Molecules are shown by their SMILES.

Turning to `N[C@]12CC[C@@]3(OC1)[C@H]1Cc4ccc(O)cc4[C@@]3(CCN1CC1CC1)C2` [Compound 17, (4bR,6S,8aS,9R)-6-amino-11-(cyclopropylmethyl)-5,6,7,8,9,10-hexahydro-9,4b-(epiminoethano)-8a,6-(epoxymethano)phenanthren-3-ol], the Ki (commonly a dissociation constant, usually derived from enzyme kinetics or from competition with a known ligand) on μ-opioid receptor [1] is 0.79 ± 0.19 nM; in assay [4], 0.096 ± 0.026 nM. The EC50 – broadly, the concentration at which the effect is half-maximal – is 0.48 ± 0.02 nM at κ-opioid receptor [2], > 20000 nM on μ-opioid receptor [3], 0.3 ± 0.032 nM at κ-opioid receptor [5] and 0.65 ± 0.078 nM at μ-opioid receptor [6]. In addition, the maximal effect (Emax) – broadly, the size of the effect at its maximum, as opposed to the concentration needed – on κ-opioid receptor [2] was found to be 75 ± 5.03%; at μ-opioid receptor [3], 0%; at κ-opioid receptor [5], 106 ± 6.84%; on μ-opioid receptor [6], 77 ± 1%.
Consider `COc1ccc2c(c1)[C@]13CCN(CC4CC4)[C@H](C2)[C@]12CC[C@@](NC(=O)C(C)(C)C)(CO2)C3` [Compound 21, N-((4bR,6S,8aS,9R)-11-(cyclopropylmethyl)-3-methoxy-5,6,7,8,9,10-hexahydro-9,4b-(epiminoethano)-8a,6-(epoxymethano)phenanthren-6-yl)pivalamide], for which the Ki on μ-opioid receptor [1] is 265 ± 77.5 nM; in assay [4], 0.33 ± 0.023 nM. Further, the EC50 on κ-opioid receptor [2] was 3.25 ± 0.37 nM; at μ-opioid receptor [3], 359 ± 128 nM; on κ-opioid receptor [5], 1.12 ± 0.056 nM; at μ-opioid receptor [6], 86.8 ± 2.57 nM. For the same compound, the Emax on κ-opioid receptor [2] was found to be 97.3 ± 1.33%; on μ-opioid receptor [3] it was 35 ± 4.04%; at κ-opioid receptor [5], 111 ± 3.28%; on μ-opioid receptor [6], 92.7 ± 2.91%.
Turning to `O=C(N[C@]12CC[C@@]3(OC1)[C@H]1Cc4ccc(O)cc4[C@@]3(CCN1CC1CC1)C2)c1ccccc1` [Compound 27, N-((4bR,6S,8aS,9R)-11-(cyclopropylmethyl)-3-hydroxy-5,6,7,8,9,10-hexahydro-9,4b-(epiminoethano)-8a,6-(epoxymethano)phenanthren-6-yl)benzamide], the Ki at μ-opioid receptor [1] came out at 0.019 ± 0.01 nM; in assay [4], 0.062 ± 0.012 nM. Further, the EC50 at κ-opioid receptor [2] worked out at 0.14 nM; at μ-opioid receptor [3], 0.58 ± 0.18 nM; at κ-opioid receptor [5] it was 0.028 nM; on μ-opioid receptor [6] it was 0.037 ± 0.01 nM. In addition, the Emax at κ-opioid receptor [2] is 94.2 ± 2.12%; at μ-opioid receptor [3] it was 34.7 ± 1.45%; on κ-opioid receptor [5] it was 93.3 ± 3.84%; at μ-opioid receptor [6] it was 112 ± 3.51%.

For the origin of these results see patent US9862726B2, “Opioid receptor modulating oxabicyclo[2.2.2]octane morphinans” (PURDUE PHARMA L.P., priority 2013, dated 2018).
